From patent publication US20050234063A1, “Therapeutic agent for brain hemorrhage” (priority 2002, published 2005)

Tests used:
AMPA receptor = settings: disclosed in Patent Reference 1 (WO 96/10023); cited from earlier work
[1] = disclosed in Patent Reference 1 (WO 96/10023); cited from earlier work
[2] = test system: ischemic reperfusion model; settings: Non-patent Reference 5; cited from earlier work
[3] = test system: cerebral hemorrhage model; experiment: Neurological symptom score in collagenase-induced rat cerebral hemorrhage model; format: in vivo; settings: 10 or 20 mg/kg/h; for neurological symptom score on the 2nd day after collagenase injection, versus physiological saline administration group / neurological symptom score on the 14th day after collagenase injection, versus physiological saline administration group: 24 h intravenous continuous injection started 30 min after collagenase, Steel test
Protocol: A cerebral hemorrhage model was prepared by the following procedure by adding a partial modification to the method of Rosenberg et al. (Stroke, 21, 801-807, 1990). Each of male Sprague-Dawley rats (240 to 330 g in body weight, Charles River Japan) was subjected to continuous anesthesia with 1% halothane under spontaneous respiration and fixed on a stereotaxic instrument. The skull was exposed by carrying out median skin incision of the head of the animal, and a small bone window was opened on the skull using a dental drill (C730, MINIMO) at a position of 0.2 mm in the front side (A: +0.2 mm) and 3.0 mm in the left side (L: +3.0 mm) based on dBregma in accordance with the Paxinos's brain pictorial book (Paxinos G and Watson C, The rat brain in the stereotaxic coordinates (1986) Academic Press, New Yolk). An administration needle of 30G was inserted to a depth of 6.0 mm (H: −6.0 mm) from the skull and then pulled out 0.3 mm to ensure an administration space (central part of the striatum). A solution of collagenase (10 units/ml, type IV, Lot 99H8641, Sigma) was injected at a flow rate of 0.2 μl/min for 7 minutes (1.4 μl) using a micro-syringe pump (Neuroscience Syringe Pump 100, Muromachi). The administration needle was slowly pulled out after completion of the injection, scalp suture was carried out, and then the animal was revived by warming up under an incandescent lamp. It has been reported that a cerebral hemorrhage locally limited to the striatum is generated 0.5 to 4 hours after injection of collagenase in this rat cerebral hemorrhage model (Stroke, 27, 2312-2320, 1996).
As the administration of medicament, zonampanel monohydrate (hereinafter, compound a) was used. After 30 minutes of the collagenase injection, intravenous injection of zonampanel was started via a canula indwelled in the common jugular vein. The compound a was dissolved in physiological saline at a concentration of 10 mg/5 ml or 20 mg/5 ml and then subjected to 24 hours of intravenous continuous injection under shading at a dose of 10 mg/5 ml/kg/h (compound a (10 mg/kg) administration group) or 20 mg/5 ml/kg/h (compound a (20 mg/kg) administration group). In the control group, physiological saline was subjected to 24 hours of intravenous continuous injection at a dose of 5 ml/kg/h (physiological saline administration group). The number of animals in respective groups was 6 animals in the compound a (10 mg/kg) administration group, 9 animals in the compound a (20 mg/kg) administration group, and 9 animals in the physiological saline administration group.
Staring after 30 minutes of the injection of collagenase into the striatum, the compound a was subjected to 24 hours of intravenous continuous injection at a dose of 10 mg/kg/h (compound a (10 mg/kg) administration group, 6 cases) or 20 mg/kg/h (compound a (20 mg/kg) administration group, 9 cases), and a neurological symptom of each animal was observed before the injection of collagenase and on the 2nd and 14th days after the collagenase injection. Physiological saline was administered to the control group (physiological saline administration group, 9 cases).
Scoring criteria of the neurological symptom are as follows. This was scored by 5 steps (O to 4) based on the behavior of each animal when the waist part of the animal was pushed toward the front side.
Score 1: Turning right is predominant but sometimes turns left.
Score 0: Normal, no left-right turning inclination. […]

[4] = test system: cerebral infarction models; settings: various cerebral infarction models; reported; cited from earlier work
[5] = test system: subarachnoid bleeding model animal; settings: subarachnoid bleeding model animal injected with one's own blood; Non-patent Reference 6; cited from earlier work

Row | SMILES | AMPA receptor binding activity (AMPA receptor) | water-solubility [1] | time after drug administration from which the neurological symptoms improving action is observed [2] [hours] | neurological symptom score on the 2nd day after collagenase injection, versus physiological saline administration group ([3]; listed as zonampanel, monohydrate) | neurological symptom score on the 2nd day after collagenase injection, versus physiological saline administration group ([3]; monohydrate) | neurological symptom score on the 14th day after collagenase injection, versus physiological saline administration group ([3]; p<0.05, listed as zonampanel, monohydrate) | neurological symptom score on the 14th day after collagenase injection, versus physiological saline administration group ([3]; p<0.05, monohydrate) | change of neurological symptom score as the days elapsed, in comparison with the control ([3]; 24 h intravenous continuous injection, days 0 to 14 (FIG. 1)) | effect on progress of infarction foci [4] | effect on vascular permeability acceleration [5]
1 | O.O=C(O)Cn1c(=O)c(=O)[nH]c2cc([N+](=O)[O-])c(-n3ccnc3)cc21 [compound a, [7-(1H-imidazol-1-yl)-6-nitro-2,3-dioxo-3,4-dihydroquinoxalin-1(2H)-yl]acetic acid monohydrate] | potent and selective | high | ≥ 24 | does not show significant effect | almost the same | significant improving effect | significantly light | improving tendency | inhibit progress of infarction foci | 
2 | CC1=NN=C(c2ccc(N)cc2)c2cc3c(cc2C1)OCO3 [GYK152466] |  |  |  |  |  |  |  |  |  | inhibits vascular permeability acceleration
